Tested on: mast cells
Assay: Release of interleukin-4 (IL-4) from mast cells stimulated with Compound 48/80
Assay type: cell-based
Conditions: sample 4 h, then Compound 48/80 20 mg/L 2 h, 8 duplicate wells, model group 67.6 ± 9.9, control group 34.4 ± 7.9
Description: According to the following test method, the effects of the […] samples A-E as prepared above on the release of IL-4 from mast cells were tested.
Experimental principle: The specific antigen is crosslinked with the IgE antibody bound to the cell membrane, resulting in cell activation and rapid secretion of inflammatory mediators related to granulation (histamine, IL-4, IL-13, etc.). […] In this study, Compound 48/80 was used to stimulate mast cells to degranulate and release the inflammatory mediator IL-4 to investigate the protective efficacy of the test samples on the allergic reaction of mast cells.
Experimental materials: Mast cells were provided by the Animal Center of Zhejiang Academy of Medical Sciences. […]
Experimental method: Each of samples was prepared using RPMI1640 medium, and each of samples was provided with 8 duplicate wells. Mast cells were inoculated into a 96-well culture plate at a density of 5×10^6/mL, 90 μL per well, and added with 10 μL/well of a corresponding sample; cultured in a 5% CO2 incubator at 37° C., and taken out after 4 h; in addition to the control group, the other groups were added with a stimulus 48/80 (final concentration 20 mg/L), and continued to incubate in an incubator at 37° C. for 2 h, and then centrifuged at 1500 rpm for 5 mins to get the supernatant, and the content of IL-4 in the supernatant was detected by Elisa (interleukin-4) kit.

SMILES: O=C(O)c1cc(=O)c2c(OCC(O)COc3cccc4oc(C(=O)O)cc(=O)c34)cccc2o1 [Positive drug, sodium cromoglycate]
- Release % (IL-4 release from cell models): 44.2 ± 12.3%
